Test results taken from patent publication US20180177729A1, “G PROTEIN-COUPLED RECEPTORS INCORPORATED INTO REHYDRATED POLYMER VESICLES RETAIN FUNCTIONALITY” (UNIVERSITY OF SOUTHERN CALIFORNIA, priority 2016, published 2018).

Target: T1, human serotonin 5-HT1A receptor (5-HT1AR) (Homo sapiens, UniProt P08908)
T1 construct: purchased Perkin Elmer
T1 sequence (P08908 1-422): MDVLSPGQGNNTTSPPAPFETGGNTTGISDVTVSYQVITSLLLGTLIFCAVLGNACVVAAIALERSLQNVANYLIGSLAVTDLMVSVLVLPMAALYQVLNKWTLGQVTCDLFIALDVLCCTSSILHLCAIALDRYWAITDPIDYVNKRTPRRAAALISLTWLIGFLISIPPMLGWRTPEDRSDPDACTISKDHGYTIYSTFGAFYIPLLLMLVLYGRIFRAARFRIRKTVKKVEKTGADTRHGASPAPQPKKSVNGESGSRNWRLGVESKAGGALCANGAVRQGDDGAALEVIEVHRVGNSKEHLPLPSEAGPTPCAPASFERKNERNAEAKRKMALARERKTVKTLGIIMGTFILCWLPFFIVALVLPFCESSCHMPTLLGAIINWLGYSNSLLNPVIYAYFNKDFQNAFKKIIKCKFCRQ
Assay: 5-HT1A activity assay via microplate reader (BODIPY-GTPγS unquenching) in pGUPs
Format: biochemical
Conditions: for Rate (protein functional rate): agonist 8-OH-DPAT, 37° C., 12 hours
Procedure: Fluorescence unquenching of BODIPY-GTPγS due to G protein binding was monitored every 5 minutes. Tracked fluorescence over time was first calculated as percent intensity increase to account for variation in sample size. Curves represent six independent replicates of the same experimental protocol and each time point is an average of the intensity increase. Curves were then normalized for ease in viewing the differences in protein functional rate.
25 mm no. 1 coverslips were cleaned via sonication in MeOH for 30 minutes at 35° C. Coverslips were dried and were further plasma treated in a PDC-32G benchtop plasma cleaner (Harrick Plasma, USA) for 15 minutes. Coverslips were held in Sykes-Moore chambers for vesicle formation. Protein-incorporated polymeric giant unilamellar protein-vesicles (pGUPs) were formed using methods similar to those previously published for lipid vesicles. Briefly, a 1:1 v/v mixture of membrane fragment suspension and agarose (3% w/v) at 45° C. was drop casted onto coverslips for thin film formation. The hydrogel film was allowed to gel and a film of polymer solution (5 mg/ml in CHCl3) was subsequently made. Solvent was evaporated using a stream of N2 gas. […] Vesicles were harvested from the coverslip and diluted in 3× of an isoosmotic glucose solution (200 mM glucose in PBS, pH 7.4). (p)GUPs were allowed to sediment in glucose for 30 minutes at room temperature.
Prepared and settled pGUPs were transferred to a flat bottom 96-well plate. Agonist 8-OH-DPAT was added to each well to a final concentration of 150 nM immediately prior to reading fluorescence. Control pGUPs were run without the addition of the agonist. Rehydration buffer with and without agonist and protein were read as positive and negative controls. Samples were read at physiological temperature (37° C.) every 5 minutes for twelve hours to ensure complete activity assessment. Fluorescence reading of BODIPY-GTPγS unquenching was done on a Biotek Synergy H4 Microplate Reader equipped with a xenon flash lamp. Excitation was set to 485/20 nm and emission at 528/20 nm at a read height of 7 mm.
Fluorescence microtiter results were collect and analyzed using JMP. Six separate observations were fitted and averaged to obtain a single curve with standard error mean values. Rates were fitted to the JMP Mechanistic Growth curve using a single exponential. Statistical analysis using a Tukey-Kramer pairwise comparison of means were done using JMP with a 95% confidence interval (α=0.05).

| SMILES | Rate (protein functional rate) (14 μM antagonist in pGUPs) | Effect on protein functional rate (antagonist in pGUPs) | Rate (protein functional rate) (14 pM antagonist in pGUPs) | Rate (protein functional rate) (14 nM antagonist in pGUPs) |
| --- | --- | --- | --- | --- |
| COc1ccccc1N1CCN(CCCCN2C(=O)c3ccccc3C2=O)CC1 [NAN-190] | 0.057 min⁻¹ | reduce the protein functional rate | – | – |
| O=C(CCCN1CCC2(CC1)C(=O)NCN2c1ccccc1)c1ccc(F)cc1 [Spiperone, spiperone] | 0.077 min⁻¹ | – | 0.102 min⁻¹ | 0.096 min⁻¹ |
